# Where a SMILES comes first, the peptide text is derived from it. [ ]: non-standard residue; d: D form. The star is where a group is joined. Hexanoyl = CCCCCC(=O)*; Ahx = NCCCCCC(=O)O
# Assays:
# [1] = system: MRC-5 cells; experiment: TGFβ-stimulated αSMA expression in MRC-5 cells (HTRF); type: cell-based; design: key to Significant reduction in αSMA via HTRF compared to TGFβ alone: NS = no statistically significant change in aSMA expression; + = p < 0.05; ++ = p < 0.01; +++ = p < 0.005; ++++ = p < 0.001; conditions: for Significant reduction in αSMA via HTRF compared to TGFβ alone: TGFβ 1 ng/ml, 48 h
# Procedure: In this study, pulmonary-derived immortalized fibroblasts, MRC-5 cells, were cultured as a model of the early transition to fibrosis, and αSMA expression was measured using an immunodetection system driven by homogenous time-resolved fluorescence (HTRF) technology. This detection system produces a fluorescent signal in the presence of αSMA in cell lysates. Cells were grown to confluence in 96-well culture plates in complete media, and then transitioned to serum-free media for 2 hours. Next TGFβ (final 1 ng/ml in serum-free media) was added to the cells to stimulate the fibrotic transition. After 2 hours, media containing either HGF or HGF combined with one of the compounds was added to the cells. After incubation for 48 hours, cells were lysed and processed for αSMA HTRF to detect the levels of αSMA expression and compared to TGFβ-stimulated cultures. Statistical analysis consisted of 1-way ANOVA with a Dunnett's multiple comparison's post-test.
# [2] = system: THP-1-differentiated macrophages; experiment: Pro-inflammatory cytokine expression in LPS-challenged THP-1-differentiated macrophages; type: cell-based, human; design: key to IL-6, significant reduction in culture supernatant vs LPS treatment / TNF-α, significant reduction in culture supernatant vs LPS treatment / IL-1β, significant reduction in culture supernatant vs LPS treatment: “NS” indicates a non-significant reduction in the indicated cytokine; “+” indicates a p value <0.05 in Tukey post test; “++” indicates a p value <0.01 in Tukey post test; conditions: for IL-1β, significant reduction in culture supernatant vs LPS treatment / IL-6, significant reduction in culture supernatant vs LPS treatment / TNF-α, significant reduction in culture supernatant vs LPS treatment: 20 min pre-treatment, 24 hrs LPS
# Procedure: Differentiation with PMA causes THP-1 monocyte cells to acquire functional and morphological resemblance to macrophages. LPS interacts with THP-1 differentiated macrophage through the toll-like receptor 4, triggering the inflammatory response and stimulating pro-inflammatory cytokine release and eventually leading to cellular death. Compounds were tested to determine their anti-inflammatory effects on LPS-challenged macrophage cultures. THP-1-differentiated macrophages were treated with test compounds for 20 minutes, followed by 24 hrs of LPS challenge. Culture supernatants were then collected to analyzed for the presence of pro-inflammatory cytokines: […], interleukin 6 (IL-6) and tumor necrosis factor α (TNF-α).
# Cytokine quantification in cell culture supernatants was accomplished by HTRF kits to assess levels of IL-1β (Human IL-1β kit, #62HIL1BPEG, Cisbio) and IL-6 (Human IL-6 kit, 62HIL06PET, Cisbio), and by ELISA to determine the levels of TNF-α (Human TNF-α ELISA kit, KHC3011, ThermoFisher).
# Data analysis was performed via 1-way ANOVA with Tukey post-test compared to LPS treatment cultures using Prism statistical software (GraphPad). Tabular data indicates significance of reduction in culture supernatants for the indicated analyte at the indicated doses.
# [3] = system: pulmonary LPS-stimulated rats; experiment: Cytokine expression in BALF supernatant (multiplex immunoassay), LPS-induced acute pulmonary inflammation; type: in vivo; conditions: 3 mg/kg IP 1 h before LPS
# [4] = system: pulmonary LPS-stimulated rats; experiment: Immune cell infiltration in BALF, LPS-induced acute pulmonary inflammation; type: in vivo; conditions: 3 mg/kg IP 1 h before LPS; BALF 4 h post LPS
# [5] = system: C57BL/6 mice, bleomycin-induced pulmonary fibrosis; experiment: Bleomycin-induced pulmonary fibrosis in mice; type: in vivo; design: key to Collagen, improvement in BLM-induced alterations versus disease control / Alpha-Smooth Muscle Actin, improvement in BLM-induced alterations versus disease control / Body Weight, improvement in BLM-induced alterations versus disease control / Right Lung Weight, improvement in BLM-induced alterations versus disease control / Hydroxyproline, improvement in BLM-induced alterations versus disease control: + = >5-25% improvement vs disease control; ++ = >26-50% improvement vs disease control; +++ = >51-100% improvement v disease control; NS means not significant
# Procedure: Lung fibrosis in C57BL/6 mice is induced by a single […] injection of the chemotherapy drug bleomycin. Mice are treated with vehicle or test compound. At termination (study day 28), one lung is weighed, with increased weight indicating more advanced fibrosis. Lung tissue is also homogenized for hydroxyproline, collagen, and TGF-β quantification. Lung tissue is also formalin-fixed and further processed for H&E, collagen morphometry, Ashcroft's score, and both α-SMA and TUNEL expression analyses. Plasma is analyzed by multiplex bead array for MMP-2, MMP-9, IL-1β, IL-6, IL-12, and TNF-α expression.
# The experimental design described in Example B1 with the following changes was used to assess the ability of Compound 1a to reduce pulmonary fibrosis. Briefly, Male C57BL/6 mice (Envigo) […] were used. The mice were 3.5-4 months old and ˜24-30 g by weight. On day −1 animals were randomized based on body weight and the animals were assigned with a permanent number by ear notching. Cages were identified by cage cards indicating the study code, group number, sex, dose, cage number, number of animals and animal number details.
# On day 0, all animals (except the sham control animals) were administered bleomycin (0.03 U in 50 μl normal saline) intratracheally (i.t.) under Ketamine+Xylazine anesthesia. The sham control animals were dosed with 50 μl of normal saline intratracheally. Pirfenidone was used as a positive control; this compound is known to downregulate growth factors and procollagens to reduce fibrosis and is an approved drug for the treatment of idiopathic pulmonary fibrosis.
# Vehicle, pirfenidone and test Compound 1a dosing was initiated from day 3 to day 21 as described in the following Table 2. On day 21 whole blood was collected 1-hour post-dose into EDTA and then processed to plasma. Right lungs were then collected, weighed, snap frozen and later homogenized for biochemical analysis. Hydroxyproline, collagen and TGF-Beta levels were measured in the right lung homogenates.
# [6] = system: BALB/c mice, CCl4 mouse model of liver fibrosis; experiment: CCl4-induced liver fibrosis, plasma AST; type: in vivo
# Procedure: Liver fibrosis in BALB/c mice was induced by biweekly intraperitoneal injections of carbon tetrachloride (CCl4) from study day 0 to 43. Mice were treated with vehicle, Compound 1a, or positive control, SB535334, beginning at study day 21. At termination (study day 43), plasma was tested for liver function via levels of aspartate aminotransferase (AST).
# AST can be used as a marker of liver damage, because increased levels are released in the blood stream in chronic liver disease.
# [7] = dose 100 mg/kg PO twice daily, right lung homogenate, day 21
molecule,measurement,setting,value
"CCCCCC(=O)N[C@@H](Cc1ccc(O)cc1)C(=O)N[C@H](C(=O)NCCCCCC(N)=O)[C@@H](C)CC [Compound A19-AM, Dihexa] (Hexanoyl-Tyr-Ile-[Ahx]-NH2)",αSMA expression,"[1]; 1 uM, combined with 0.01 ng/ml HGF",significantly reduced αSMA
same,Significant reduction in αSMA via HTRF compared to TGFβ alone,"[1]; test compound 1 nM, HGF 0.01 ng/ml",NS
same,Significant reduction in αSMA via HTRF compared to TGFβ alone,"[1]; test compound 1 μM, HGF 0.01 ng/ml",++++ (++++ = p < 0.001)
same,"IL-1β, significant reduction in culture supernatant vs LPS treatment",[2]; 0.1 nM,NS
same,"IL-6, significant reduction in culture supernatant vs LPS treatment",[2]; 0.1 nM,NS
same,"TNF-α, significant reduction in culture supernatant vs LPS treatment",[2]; 0.1 nM,NS
same,"IL-1β, significant reduction in culture supernatant vs LPS treatment",[2]; 10 nM,++ (“++” indicates a p value <0.01 in Tukey post test)
same,"IL-6, significant reduction in culture supernatant vs LPS treatment",[2]; 10 nM,+ (“+” indicates a p value <0.05 in Tukey post test)
same,"TNF-α, significant reduction in culture supernatant vs LPS treatment",[2]; 10 nM,+ (“+” indicates a p value <0.05 in Tukey post test)
same,"IL-1β, significant reduction in culture supernatant vs LPS treatment",[2]; 1000 nM,+ (“+” indicates a p value <0.05 in Tukey post test)
same,"IL-6, significant reduction in culture supernatant vs LPS treatment",[2]; 1000 nM,++ (“++” indicates a p value <0.01 in Tukey post test)
same,"TNF-α, significant reduction in culture supernatant vs LPS treatment",[2]; 1000 nM,+ (“+” indicates a p value <0.05 in Tukey post test)
same,expression of IL-1β and TNF-α,[2]; at at least one tested dose,significantly reduced
same,expression of IL-6,[2]; at at least one tested dose,significantly reduced
"C[C@@H]1C[C@H]2[C@@H]3CCC4=CC(=O)C=C[C@]4(C)[C@@]3(F)[C@@H](O)C[C@]2(C)[C@@]1(O)C(=O)CO [Dex, Dexamethasone, reference compound]","CCL2, significant change in cytokine expression in BALF supernatant",[3],"+ (+ = Significant change in cytokine quantification, p < 0.05 by Student's T-test)"
same,"CCL3, significant change in cytokine expression in BALF supernatant",[3],"+ (+ = Significant change in cytokine quantification, p < 0.05 by Student's T-test)"
same,"CCL5, significant change in cytokine expression in BALF supernatant",[3],"+ (+ = Significant change in cytokine quantification, p < 0.05 by Student's T-test)"
same,"CCL11, significant change in cytokine expression in BALF supernatant",[3],"+ (+ = Significant change in cytokine quantification, p < 0.05 by Student's T-test)"
same,"CX3CL1, significant change in cytokine expression in BALF supernatant",[3],"+ (+ = Significant change in cytokine quantification, p < 0.05 by Student's T-test)"
same,"CXCL1, significant change in cytokine expression in BALF supernatant",[3],"+ (+ = Significant change in cytokine quantification, p < 0.05 by Student's T-test)"
same,"CXCL5, significant change in cytokine expression in BALF supernatant",[3],"+ (+ = Significant change in cytokine quantification, p < 0.05 by Student's T-test)"
same,"CXCL10, significant change in cytokine expression in BALF supernatant",[3],"+ (+ = Significant change in cytokine quantification, p < 0.05 by Student's T-test)"
same,"EGF, significant change in cytokine expression in BALF supernatant",[3],"+ (+ = Significant change in cytokine quantification, p < 0.05 by Student's T-test)"
same,"IFN-γ, significant change in cytokine expression in BALF supernatant",[3],"+ (+ = Significant change in cytokine quantification, p < 0.05 by Student's T-test)"
same,"IL-1α, significant change in cytokine expression in BALF supernatant",[3],"+ (+ = Significant change in cytokine quantification, p < 0.05 by Student's T-test)"
same,"IL-1β, significant change in cytokine expression in BALF supernatant",[3],"+ (+ = Significant change in cytokine quantification, p < 0.05 by Student's T-test)"
same,"IL-5, significant change in cytokine expression in BALF supernatant",[3],"+ (+ = Significant change in cytokine quantification, p < 0.05 by Student's T-test)"
same,"IL-6, significant change in cytokine expression in BALF supernatant",[3],"+ (+ = Significant change in cytokine quantification, p < 0.05 by Student's T-test)"
same,"IL-10, significant change in cytokine expression in BALF supernatant",[3],"+ (+ = Significant change in cytokine quantification, p < 0.05 by Student's T-test)"
same,"IL-12p70, significant change in cytokine expression in BALF supernatant",[3],"+ (+ = Significant change in cytokine quantification, p < 0.05 by Student's T-test)"
same,"IL-13, significant change in cytokine expression in BALF supernatant",[3],"+ (+ = Significant change in cytokine quantification, p < 0.05 by Student's T-test)"
same,"IL-17A, significant change in cytokine expression in BALF supernatant",[3],"+ (+ = Significant change in cytokine quantification, p < 0.05 by Student's T-test)"
same,"TNF-α, significant change in cytokine expression in BALF supernatant",[3],"+ (+ = Significant change in cytokine quantification, p < 0.05 by Student's T-test)"
same,"Neutrophils in BALF, reduction in cell count vs disease control",[4],+++ (+++ = >75% reduction in cell count vs disease control)
same,"Total Leukocytes in BALF, reduction in cell count vs disease control",[4],+++ (+++ = >75% reduction in cell count vs disease control)
"Cc1ccc(=O)n(-c2ccccc2)c1 [Pirfenidone, reference compound]",bleomycin-induced increases in TGF-β in right lung homogenates,"[5]; all doses, day 21",significantly protected against bleomycin-induced increases in TGF-β
same,protection against bleomycin-induced body weight loss,"[5]; all treatment groups, over the study period",did not protect against body weight loss
same,"Body Weight, improvement in BLM-induced alterations versus disease control","[5]; dose 100 mg/kg PO twice daily, days 3-21",NS
same,"Right Lung Weight, improvement in BLM-induced alterations versus disease control","[5]; dose 100 mg/kg PO twice daily, days 3-21, day 21",+ (+ = >5-25% improvement vs disease control)
same,"Alpha-Smooth Muscle Actin, improvement in BLM-induced alterations versus disease control","[5]; dose 100 mg/kg PO twice daily, day 21",+ (+ = >5-25% improvement vs disease control)
same,"Collagen, improvement in BLM-induced alterations versus disease control",[5]; [7],++ (++ = >26-50% improvement vs disease control)
same,"Hydroxyproline, improvement in BLM-induced alterations versus disease control",[5]; [7],NS
same,"TGF-Beta, improvement in BLM-induced alterations versus disease control",[5]; [7],+++ (+++ = >51-100% improvement v disease control)
same,alpha-smooth muscle actin morphometory,"[5]; other doses of Compound 1a, pirfenidone doses, day 21",insignificant decreases
"Cc1cccc(-c2[nH]c(C(C)(C)C)nc2-c2ccc3nccnc3c2)n1 [SB525334, reference compound]","AST in plasma, improvement compared to disease control","[6]; Dose 30, from study day 21, termination day 43",− (− = change of <5% compared to disease control)
same,AST levels in plasma compared to CCl4-treated mice receiving vehicle,[6]; positive control,significant increases
"HGF: Hepatocyte growth factor protein, added alone or with test compounds",Significant reduction in αSMA via HTRF compared to TGFβ alone,[1]; HGF 0.01 ng/ml alone,NS
same,Significant reduction in αSMA via HTRF compared to TGFβ alone,[1]; HGF 1 ng/ml alone,NS
same,Significant reduction in αSMA via HTRF compared to TGFβ alone,[1]; HGF 10 ng/ml alone,+++ (+++ = p < 0.005)
same,"αSMA expression, HGF alone",[1]; TGFβ-stimulated MRC-5 cells,significantly reduce αSMA expression at high (10 ng/ml) but not low (0.01 or 1 ng/ml) concentrations

# From patent US20250288587A1, “Methods of Treating Fibrosis” (Athira Pharma, Inc., priority 2022, published 2025)
